Patent EP4000606A1, “COMPOUNDS FOR CORONAVIRUS INFECTION TREATMENT AND/OR PREVENTION” (priority 2020, dated 2022)
Like-named read-outs stand apart in the source and are kept apart here. Peptide text beside a SMILES is read from it. * marks the point of attachment. Cbz = O=C(OCc1ccccc1)*

System: SARS-CoV-2
Test: microbe, parasite or virus in culture
Assay type: cell-based
[1] = Severe acute respiratory syndrome coronavirus 2, 120 h
[2] = confluence of SARS-CoV-2 infected VeroE6-EGFP cells after test compound treatment compared to control wells, 5 days

Compound	Maximum confluence reached (%) (5 days)	also measured
C[C@H]1CCC/C=C/[C@@H]2C[C@H](O)C[C@H]2[C@H](O)/C=C/C(=O)O1 (relative stereo) [compound 47, (1R,2S,7S,13S,15S)-2,15-Dihydroxy-7-methyl-6-oxabicyclo[11.3.0]hexadeca-3(E),11(E)-dien-5-one [1S-(1R*,2E,6R*,10E,11aR*,13R*,14a S*)]-1,6,7,8,9,11a,12,13,14,14a-Decahydro-1,13-dihydroxy-6-methyl-4H-cyclopent[f]oxacyclotridecin-4-one]		Emax (Severe acute respiratory syndrome coronavirus 2, 120 h, 5 days, read-out: Maximum confluence reached (%)): 122%
CCC(C/C=C/c1ccccc1)(c1ccccc1)N(C)CC1CC1 (single isomer, unassigned; (+)) [compound 89, (+)-N-(Cyclopropylmethyl)-N-[1-ethyl-1,4-diphenyl-3(E)-butenyl]-N-methylamine]	58.34	IC50 [1]: 11.2 µM
CN(Cc1cnc2nc(N)nc(N)c2n1)c1ccc(C(=O)N[C@@H](CCC(=O)O)C(=O)O)cc1 [compound 1, N-[4-[N-(2,4-Diaminopteridin-6-ylmethyl)-N-methylamino]benzoyl]-L-glutamic acid]		IC50 (Severe acute respiratory syndrome coronavirus 2, 120 h, half maximal concentration able to recover the cytopathic effect of infection, VeroE6-EGFP cells, 0.01 MOI, 5 days, 8 concentrations, read-out: IC50): 0.05 µM; Maximum confluence reached (%) [2]: 64%
COc1cc(NCc2ccc3nc(N)nc(N)c3c2C)cc(OC)c1OC [compound 2, 2,4-Diamino-5-methyl-6-[(3,4,5-trimethoxyanilino)methyl]quinaz oline 5-Methyl-6-[[(3,4,5-trimetoxyphenyl)amino]methyl]-2,4-quinazolinediamine]	78.23	
C#CCC(Cc1cnc2nc(N)nc(N)c2n1)c1ccc(C(=O)N[C@@H](CCC(=O)O)C(=O)O)cc1 (stereo partly drawn) [compound 3, N-[4-[2-(2,4-Diaminopteridin-6-yl)-1-(2-propynyl)ethyl]benzoyl]-L-glutamic acid 10-Propargyl-10-deazaaminopterin]	76.65	
Nc1nc(N)c2nc(CNc3ccc(C(=O)N[C@@H](CCC(=O)O)C(=O)O)cc3)cnc2n1 [compound 10, N-[4-(2,4-diamino-6-pteridinylmethylamino)benzolyl]-L-glutamic acid]	72.54	
CN(C)c1cccc(-c2c3c(=O)n(-c4ccccc4Cl)[nH]c3cc(=O)n2C)c1 [compound 13, 2-(2-Chlorophenyl)-4-[3-(dimethylamino)phenyl]-5-methyl-1H-pyrazolo[4,3-c]pyridine-3,6(2H,5H)-dione]	101.52	IC50 [1]: 7.57 µM
Nc1ncc(-c2ccnc(Nc3ccncc3)n2)c(CC2CC2)n1 [compound 20, 4'-(Cyclopropylmethyl)-N2-(pyridin-4-yl)-4,5'-bipyrimidine-2,2'-diamine]	98.17	
C/C(=C\c1ccc(C(=O)O)cc1)c1ccc2c(c1)C(C)(C)CCC2(C)C [compound 26, 4-[2-(5,5,8,8-Tetramethyl-5,6,7,8-tetrahydronaphthalen-2-yl)-1(E)-propenyl]benzoic acid]	105.73	IC50 [1]: 33.7 µM
c1cncc(CN2CCC(n3ncc4c(N5CCOCC5)nc(-c5ccc6[nH]ccc6c5)nc43)CC2)c1 [compound 32, 6-(1H-Indol-5-yl)-4-(4-morpholinyl)-1-[1-(pyridin-3-ylmethyl)piperidin-4-yl]-1H-pyrazolo[3,4-d]pyrimidine]	67.69	
COc1ccc2c(c1)[C@]1(C[C@H]1c1ccc3c(/C=C/c4ccc(CN5C[C@@H](C)O[C@@H](C)C5)cc4)n[nH]c3c1)C(=O)N2.O=C(O)/C=C/C(=O)O [compound 33, (1R,2S)-2-[3-[(E)-2-[4-[(cis-2,6-Dimethylmorpholin-4-yl)methyl]phenyl]vinyl]-1H-indazol-6-yl]-5'-methoxyspiro[cyclopropane-1,3'-indol]-2'(1'H)-one (2E)-but-2-enedioate]	105.46	
CNCc1ccc(-c2cc(-c3nc(-c4ccc(S(=O)(=O)C(C)C)cc4)cnc3N)on2)cc1 [compound 34, 3-[3-[4-[(Methylamino)methyl]phenyl]-1,2-oxazol-5-yl]-5-[4-(propan-2-ylsulfonyl)phenyl]pyrazin-2-amine]	99.21	
COc1cc2c(N3CCN(C(=O)Nc4ccc(OC(C)C)cc4)CC3)ncnc2cc1OCCCN1CCCCC1 [compound 35, N-(4-Isopropoxyphenyl)-4-[6-methoxy-7-[3-(1-piperidinyl)propoxy]quinazolin-4-yl]piperazine-1-carboxamide]	80.09	
CN1[C@@H]2CC[C@H]1C[C@@H](OC(=O)c1cc(Cl)cc(Cl)c1)C2 [compound 36, 1alphaH,3alpha,5alphaH-Tropan-3-yl-3,5-dichlorobenzoate; 3,5-Dichlorobenzoic acid endo-8-methyl-8-azabicyclo[3.2.1]oct-3-yl ester]	69.05	IC50 [1]: 43.9 µM
CC1=NN(c2ccc(C)c(C)c2)C(=O)/C1=N\Nc1cccc(-c2cccc(C(=O)O)c2)c1O [compound 37, 3'-[2(Z)-[1-(3,4-Dimethylphenyl)-3-methyl-5-oxo-4,5-dihydro-1H-pyrazol-4-ylidene]hydrazino]-2'-hydroxybiphenyl-3-carboxylic acid]	63.17	IC50 [1]: 58.1 µM
Cc1nc(N)nc(N)c1-c1ccc(Cl)c(Cl)c1 [compound 41, 5-(3,4-Dichlorophenyl)-6-methylpyrimidine-2,4-diamine]	58.02	
CC(C)c1cnn2c(NCc3ccccc3)cc(NCCCCCCN)nc12 [compound 48, N5-(6-Aminohexyl)-N7-benzyl-3-isopropylpyrazolo[1,5-a]pyrimidine-5,7-diamine]	47.31	
CC1(N2CCC(n3c([C@@H]4CCCNC4)nc4ccccc43)CC2)CCCCCCC1 [compound 51, 1-[1-(1-Methylcyclooctyl)piperidin-4-yl]-2-[3(R)-piperidinyl]-1H-benzimidazole]	57.77	
CC(C)C[C@@H](C=O)NC(=O)[C@H](CC(C)C)NC(=O)[C@H](CC(C)C)NC(=O)OCc1ccccc1 [compound 52, Benzyloxycarbonyl-L-leucyl-L-leucyl-L-leucinal] (Cbz-Leu-Leu-Leu-aldehyde)	82.81	
Cc1[nH]c(/C=C2\C(=O)Nc3ccc(S(=O)(=O)Cc4c(Cl)cccc4Cl)cc32)c(C)c1C(=O)N1CCC[C@@H]1CN1CCCC1 [compound 53, 5-(2,6-Dichlorobenzylsulfonyl)-3(Z)-[3,5-dimethyl-4-[2(R)-(pyrrolidin-1-ylmethyl)pyrrolidin-1-ylcarbonyl]-1H-pyrrol-2-ylmethylene]-2,3-dihydro-1H-indol-2-one]	95.69	
C[C@@H]1COCCN1c1cc(=O)n2c(n1)N(Cc1cncc(Cl)c1)[C@H](C(F)(F)F)CC2 [compound 54, (8S)-9-[(5-Chloropyridin-3-yl)methyl]-2-[(3R)-3-methylmorpholin-4-yl]-8-(trifluoromethyl)-6,7,8,9-tetrahydro-4H-pyrimido[1,2-a]pyrimidin-4-one]		Maximum confluence reached (%) [2]: 89%
O=C(NCCN1CCC2(CC1)C(=O)NCN2c1cccc(F)c1)c1ccc2ccccc2c1 [compound 56, N-[2-[1-(3-Fluorophenyl)-4-oxo-1,3,8-triazaspiro[4.5]dec-8-yl]ethyl]naphthalen-2-carboxamide]	98.46	
Cc1cc(O[C@@H](CCC(F)(F)F)c2ccc(C(=O)NCCC(=O)O)cc2)cc(C)c1-c1ccc(C(C)(C)C)cc1 [compound 57, N-(4-[(1S)-1-[(4'-tert-Butyl-2,6-dimethylbiphenyl-4-yl)oxy]-4,4,4-trifluorobutyl]benzoyl)-beta-alanine]	39.53	
COc1cc2c(NC3CCN(C4CCCCC4)CC3)nc(N3CCCN(C(C)C)CC3)nc2cc1OCCCN1CCCCC1 [compound 59, N-(1-Cyclohexylpiperidin-4-yl)-6-methoxy-7-[3-(1-piperidinyl)propoxy]-2-[4-(propan-2-yl)perhydro-1,4-diazepin-1-yl]quinazolin-4-amine]	80.08	
CC(C)(O)CNc1ncc(-c2ccnc(Nc3ccnc(Cl)c3)n2)c(CC2CC2)n1 [compound 60, 1-[[2-[(2-chloro-4-pyridinyl)amino]-4'-(cyclopropylmethyl) [4,5'-bipyrimidin]-2'-yl]amino]-2-methyl-2-propanol]	45.62	
COc1ccccc1[C@H](Cn1c(=O)n(C(C)(C)C(=O)O)c(=O)c2c(C)c(-c3ncco3)sc21)OC1CCOCC1 [compound 61, 2-[1-[(2R)-2-(2-Methoxyphenyl)-2-(tetrahydro-2H-pyran-4-yloxy)ethyl]-5-methyl-6-(1,3-oxazol-2-yl)-2,4-dioxo-1,4-dihydrothieno[2,3-d]pyrimidin-3(2H)-yl]-2-methylpropanoic acid]	78.18	
Cc1ccc(C(=O)Nc2cccc(C(F)(F)F)c2)cc1Nc1nc(-c2cccnc2)nc2c1cnn2C [compound 62, 4-methyl-3-{[1-methyl-6-(3-pyridinyl)-1H-pyrazolo[3,4-d]pyrimidin-4-yl]amino}-N-[3-(trifluoromethyl)phenyl]benzamide]		Maximum confluence reached (%): 88.43%
Cn1nc(C(C)(C)C)cc1C(=O)N[C@@H](Cc1cccc(Cl)c1)C(=O)NCC#N [compound 63, 3-tert-butyl-N-{(1S)-1-(3-chlorobenzyl)-2-[(cyanomethyl)amino]-2-oxoethyl}-1-methyl-1H-pyrazole-5-carboxamide]	96.18	
N#Cc1cccc(C#N)c1-c1nc2c3ccc(Cl)cc3c3ccccc3c2[nH]1 [compound 64, 2-(6-Chloro-1H-phenanthro[9,10-d]imidazol-2-yl)benzene-1,3-dicarbonitrile]	98.48	
